Experimental data published in US11583529B2, “Treatment of inflammatory disorders” (Aldeyra Therapeutics, Inc., priority 2017, dated 2023).
Blank lines part the entries; values can stand above or below the compound they belong to.

Tests used:
[1] = test system: dextran sulfate sodium (DSS)-induced acute ulcerative colitis (UC); assay: 7-Day DSS-induced acute ulcerative colitis model; type: in vivo, female Swiss Webster mice; conditions: for Body weights: 200 mg/kg PO BID (Groups 5, 6, 7, 8, 9, and 10)
[2] = test system: Dry Eye Disease (DED); assay: Phase 2b clinical study of I-5 Ophthalmic Solution (0.25% and 0.1%) vs vehicle in subjects with dry eye disease; type: in vivo, human; conditions: for Reason for Study Withdrawal: Adverse Events / Study Completion: Discontinued: N = 100
Source text: Objectives: • To evaluate the efficacy of I-5 Ophthalmic Solutions (0.25% and 0.1%) on baseline to weeks 2, 4, 8, and 12 change scores for sign and symptom endpoints of dry eye disease. • To evaluate effect sizes for efficacy endpoints of I-5 Ophthalmic Solutions (0.25% and 0.1%) vs vehicle for the treatment of the signs and symptoms of dry eye disease to confirm the endpoint selection and sample size for Phase 3 studies. • To evaluate the safety and tolerability of I-5 Ophthalmic Solutions (0.25% and 0.1%) to vehicle for the treatment of the signs and symptoms of dry eye disease.
Treatment: During the 12-week (84±3 days) treatment period, I-5 Ophthalmic Solution at concentrations of 0.1%, 0.25%, or vehicle ophthalmic solution was administered QID by bilateral topical ocular dosing. Subjects were randomized to one of three treatment groups (1:1:1) to receive study drug after the Post-CAE® assessments at Visit 2.
Summary of Visit Schedule: Six visits over the course of approximately 14 weeks • Visit 1=Day −14±2, CAE® Screening • Visit 2=Day 1, CAE® Confirmation/Baseline • Visit 3=Day 15±2, 2-Week Follow-Up • Visit 4=Day 29±2, 4-Week Follow-Up • Visit 5=Day 57±3, 8-Week Follow-Up • Visit 6=Day 85±3, 12-Week CAE® Follow-Up & Study Exit
Note: a subject could not have an Ocular Discomfort score of 4 at time=0); • 12 Had at least one eye, the same eye, satisfy all criteria for 6, 7, 8, 9, 10, and 11 above.
Safety Measures: • Visual acuity • Slit-lamp evaluation • Adverse event query • Intraocular Pressure (IOP) • Dilated fundoscopy
Efficacy Analysis • Evaluated baseline to weeks 2, 4, 8 and 12 change scores with I-5 on DED sign and symptom endpoints (both pre-CAE and CAE endpoints). Each endpoint was analyzed at a two-sided alpha level of 0.05, and the overall type I error was not controlled for in this investigative study. • Evaluated effect size of baseline to weeks 2, 4, 8 and 12 change scores of I-5 vs vehicle on DED sign and symptom endpoints (both pre-CAE and CAE endpoints) to confirm the endpoint selection for primary outcome parameters and sample size for Phase 3 studies with I-5. • Sub-group analyses on effect size of baseline to weeks 2, 4, 8 and 12 change scores of I-5 vs vehicle on DED sign and symptom endpoints (both pre-CAE and CAE endpoints) [Subgroups were prospectively detailed in the Statistical Analysis Plan (SAP)].

[3] = test system: rat model of endotoxin induced uveitis; assay: Rat model of endotoxin-induced uveitis (EIU), topical or intravitreal treatment; type: in vivo, female Lewis rats
Description: An in vivo study was conducted to assess the efficacy of intravitreal administration of compound I-22 in a rat model of endotoxin induced uveitis, one of the most appropriate models for the study of NIU (Smith et al., 1998) (Toxikon Study 16-04078-N1). Ocular inflammation was induced in female Lewis rats (n=10/group) by a single foot pad injection of LPS (100 μL) (Herbort et al., 1988, Graefe's Arch Clin Exp Ophthalmol. 226:553-558). Compound I-22 (5 mg/mL) was administered intravitreally into each eye (25 μg/eye), or topically to both eyes at 1, 3, 7, 10, and 17 hours post-LPS injection, within one hour of LPS administration. Balanced salt solution (BSS) served as a vehicle control. Retinal exams were performed prior to study start and six and 24 hours following LPS administration and scored using a Combined Draize and McDonald Shadduck scoring system, based on assessments of: retinal vasculopathy and retinal hemorrhage, exudate, and detachment.
Endotoxin-induced uveitis was created by a single injection of lipopolysaccharide (LPS; 100 μL) into one hind footpad. Ten (10) female Lewis rats per group received control (balanced salt solution, BSS) or test article (compound I-22) topically to both eyes at 1, 3, 7, 10, and 17 hours post-LPS injection. At each dosing time point, two drops (5 μL each, separated by approximately two minutes, for a total of 10 μL/eye/dose) were instilled into each eye of the animals. Ten female Lewis rats per group received control (BSS) or compound I-22 by a single intravitreal injection (IVT) in each eye at one hour post-LPS injection. Each eye received 5 μL of vehicle or test article.
Animals were anesthetized with isoflurane 1-3.5% for ophthalmic examinations. Both eyes of each animal were evaluated pre-dose using slit-lamp biomicroscopy, and an indirect ophthalmoscope or a surgical microscope, according to the Combined Draize and McDonald-Shadduck Scoring System, and the Ocular Posterior Segment Scoring Scale. All pupils were dilated with 1% tropicamide ophthalmic solution before ocular examination. Only rats showing no signs of eye irritation, ocular defects or preexisting corneal injury were used in the study.
Ophthalmic examinations were performed on both eyes of each animal approximately six and 24 hours following LPS administration, using slit-lamp biomicroscopy and a surgical microscope or via indirect ophthalmoscopy. Pupils were dilated with 1% Tropicamide Ophthalmic Solution before ophthalmic examinations.
Quantitative, continuous data from this study were analyzed using one-way ANOVA. Alternative or additional statistical methods were used as necessary.
In the same study, the efficacy of compound 1-5 was compared to that of compound 1-22. Compound 1-5 was topically administered topically to the eye at hours 1, 3, 7, 10, and 17, after LPS induction, or by a single intravitreal (IVT) injection one hour after LPS induction (n=10 per group), as was compound I-22. Ocular exams were performed 6 and 24 hours after LPS injection. Anterior segments were scored using a combined Draize and McDonald-Shadduck scoring system, and posterior segments were scored using 0 to 1 (vitreous, optic disc, retinal vasculature) and 0 to 4 (retinal and choroidal hemorrhage, exudation, and detachment) scales. Statistical significance from vehicle control was determined by ANOVA, followed by Tukey's post hoc test.

[4] = 100 mg/kg IP QD, Days 0 through 6, vs IP vehicle
[5] = 200 mg/kg PO BID, Days 0 through 6, vs PO vehicle
[6] = 200 mg/kg PO BID, Days −3 through 6, vs PO vehicle
[7] = 0.25% group, majority (>50-100%) of effect vs vehicle at first study endpoint (Week 2 or 4)
[8] = intravitreal administration, vs vehicles

SMILES: CC(C)(O)c1nc2ccccc2cc1N [Compound I-6]
Colon lengths, increase in the direction of normal [1, 4]: 56%
Colon weight-to-length ratios, reduction in the direction of normal [1, 4]: 35%
DAI score of occult/gross blood in stool, AUC [1, 4]: significantly lower
DAI score of stool consistency, area under the curve (AUC) [1, 4]: significantly lower
DAI summed scores, AUC [1, 4]: significantly lower
full colon PMN percentages, reduction [1, 4]: 53%
full colon edema, reduction [1, 4]: 53%
full colon erosion, reduction [1, 4]: 91%
full colon gland loss, reduction [1, 4]: 82%
full colon inflammation, reduction [1, 4]: 56%
full colon lymphoid aggregate counts, reduction [1, 4]: 113%
full colon neutrophil scores, reduction [1, 4]: 73%
full colon summed scores, reduction [1, 4]: 68%
proximal colon gland loss, reduction [1, 4]: 57%
proximal colon inflammation, reduction [1, 4]: 32%
proximal colon lymphoid aggregate counts, reduction [1, 4]: 107%
proximal colon summed scores, reduction [1, 4]: 36%
Body weight loss ([1]; 100 mg/kg IP QD, Days 0 through 6, vs IP vehicle (SBECD)): significantly inhibited
Body weights ([1]; vs PO vehicle): did not differ significantly
full colon edema, reduction [1, 5]: 44%
proximal colon edema, reduction [1, 5]: 48%
proximal colon inflammation, reduction [1, 5]: 36%
full colon edema, reduction [1, 6]: 58%
proximal colon edema, reduction [1, 6]: 41%
proximal colon erosion, reduction [1, 6]: 75%
DAI stool consistency scores ([1]; Day 2, 100 mg/kg IP QD, Days 0 through 6, vs IP vehicle): significantly reduced
DAI summed scores ([1]; Day 6, 100 mg/kg IP QD, Days 0 through 6, vs IP vehicle): significantly reduced
DAI occult/gross blood in stool scores ([1]; Days 4 and 6, 100 mg/kg IP QD, Days 0 through 6, vs IP vehicle): significantly reduced

Study Completion: Discontinued ([2]; 0.1% QID): 3 (3.0%)
Study Completion: Discontinued ([2]; 0.25% QID): 12 (12.0%)
SMILES: CC(C)(O)c1nc2ccc(Cl)cc2cc1N [Compound I-5]
Reason for Study Withdrawal: Adverse Events ([2]; 0.1% QID): 2 (2.0%)
effects at later time points ([2]; 0.1%, clearest with signs, especially ocular staining): Matched Higher Dose Effects at Later Time Points
Reason for Study Withdrawal: Adverse Events ([2]; 0.25% QID): 10 (10.0%)
early onset of effect, sign endpoints (Lissamine green total score, fluorescein total score, tear osmolarity positive; TFBUT negative) [2, 7]: Positive early onset for 3 out of 4 sign endpoints
early onset of effect, symptom endpoints (ODS, OD4SQ, OSDI positive; SANDE negative) [2, 7]: Positive early onset for 3 out of 4 symptom endpoints
Fluorescein Staining: Central (0-4); Dose Trend? ([2]; ITT, observed data only): ✓
Fluorescein Staining: Central (0-4); Drug Trend? ([2]; ITT, observed data only): ✓
Fluorescein Staining: Conjunctival Sum Score (Nasal and Temporal) (0-8; Σ 2×); Dose Trend? ([2]; ITT, observed data only): ✓
Fluorescein Staining: Conjunctival Sum Score (Nasal and Temporal) (0-8; Σ 2×); Drug Trend? ([2]; ITT, observed data only): ✓
Fluorescein Staining: Corneal Sum Score (Inferior, Superior, and Central) (0-12; Σ 3×); Drug Trend? ([2]; ITT, observed data only): ✓
Fluorescein Staining: Inferior (0-4); Drug Trend? ([2]; ITT, observed data only): ✓
Fluorescein Staining: Nasal (0-4); Dose Trend? ([2]; ITT, observed data only): ✓
Fluorescein Staining: Nasal (0-4); Drug Trend? ([2]; ITT, observed data only): ✓
Fluorescein Staining: Temporal (0-4); Dose Trend? ([2]; ITT, observed data only): ✓
Fluorescein Staining: Temporal (0-4); Drug Trend? ([2]; ITT, observed data only): ✓
Fluorescein Staining: Total Score (all five regions) (0-20; Σ 5×); Drug Trend? ([2]; ITT, observed data only): ✓
OD & 4-Symptom Questionnaire: Burning (0-5); Drug Trend? ([2]; ITT, observed data only): ✓
OD & 4-Symptom Questionnaire: Dryness (0-5); Dose Trend? ([2]; ITT, observed data only): ✓
OD & 4-Symptom Questionnaire: Dryness (0-5); Drug Trend? ([2]; ITT, observed data only): ✓
OD & 4-Symptom Questionnaire: Grittiness (0-5); Dose Trend? ([2]; ITT, observed data only): ✓
OD & 4-Symptom Questionnaire: Grittiness (0-5); Drug Trend? ([2]; ITT, observed data only): ✓
OD & 4-Symptom Questionnaire: Overall Ocular Discomfort (0-5); Dose Trend? ([2]; ITT, observed data only): ✓
OD & 4-Symptom Questionnaire: Overall Ocular Discomfort (0-5); Drug Trend? ([2]; ITT, observed data only): ✓
OD & 4-Symptom Questionnaire: Stinging (0-5); Dose Trend? ([2]; ITT, observed data only): ✓
OD & 4-Symptom Questionnaire: Stinging (0-5); Drug Trend? ([2]; ITT, observed data only): ✓
Ocular Discomfort Scale (0-4); Dose Trend? ([2]; ITT, observed data only): ✓
Ocular Discomfort Scale (0-4); Drug Trend? ([2]; ITT, observed data only): ✓
Ocular Surface Disease Index (OSDI) (0-100); Dose Trend? ([2]; ITT, observed data only): ✓
Ocular Surface Disease Index (OSDI) (0-100); Drug Trend? ([2]; ITT, observed data only): ✓
Osmolarity (mOsm/L); Drug Trend? ([2]; ITT, observed data only): ✓
SANDE Questionnaire Frequency (0-100 mm); Drug Trend? ([2]; ITT, observed data only): ✓
SANDE Questionnaire Severity (0-100 mm); Dose Trend? ([2]; ITT, observed data only): ✓
SANDE Questionnaire Severity (0-100 mm); Drug Trend? ([2]; ITT, observed data only): ✓
Schirmer’s Test (mm); Dose Trend? ([2]; ITT, observed data only): ✓
Schirmer’s Test (mm); Drug Trend? ([2]; ITT, observed data only): ✓
Tear Film Break-up Time (sec); Dose Trend? ([2]; ITT, observed data only): ✓
Usamine Green Staining: Central (0-4); Dose Trend? ([2]; ITT, observed data only): ✓
Usamine Green Staining: Central (0-4); Drug Trend? ([2]; ITT, observed data only): ✓
Usamine Green Staining: Conjunctival Sum Score (Nasal and Temporal) (0-8; Σ 2×); Dose Trend? ([2]; ITT, observed data only): ✓
Usamine Green Staining: Conjunctival Sum Score (Nasal and Temporal) (0-8; Σ 2×); Drug Trend? ([2]; ITT, observed data only): ✓
Usamine Green Staining: Corneal Sum Score (Inferior, Superior, and Central) (0-12; Σ 3×); Dose Trend? ([2]; ITT, observed data only): ✓
Usamine Green Staining: Corneal Sum Score (Inferior, Superior, and Central) (0-12; Σ 3×); Drug Trend? ([2]; ITT, observed data only): ✓
Usamine Green Staining: Inferior (0-4); Dose Trend? ([2]; ITT, observed data only): ✓
Usamine Green Staining: Inferior (0-4); Drug Trend? ([2]; ITT, observed data only): ✓
Usamine Green Staining: Nasal (0-4); Dose Trend? ([2]; ITT, observed data only): ✓
Usamine Green Staining: Nasal (0-4); Drug Trend? ([2]; ITT, observed data only): ✓
Usamine Green Staining: Superior (0-4); Dose Trend? ([2]; ITT, observed data only): ✓
Usamine Green Staining: Temporal (0-4); Dose Trend? ([2]; ITT, observed data only): ✓
Usamine Green Staining: Temporal (0-4); Drug Trend? ([2]; ITT, observed data only): ✓
Usamine Green Staining: Total Score (all five regions) (0-20; Σ 5×); Dose Trend? ([2]; ITT, observed data only): ✓
Usamine Green Staining: Total Score (all five regions) (0-20; Σ 5×); Drug Trend? ([2]; ITT, observed data only): ✓
Dose Response ([2]; between 0.1% and 0.25% dose strengths): Demonstrated
ocular exam scores ([3]; IVT, vs vehicle): significantly improved
Total ocular inflammation [3, 8]: lower
anterior chamber inflammation [3, 8]: lower
retina-choroid inflammation [3, 8]: lower
signs of inflammation in the rat EIU model ([3]; overall): reduced
response in the EIU model ([3]; overall, I-22 compared with I-5): positive response
ocular exam scores ([3]; topical (TO), 6 hours and 24 hours, vs vehicle): significantly improved
Total ocular inflammation score ([3]; topical (TO), vs vehicle): lower
anterior chamber inflammation score ([3]; topical (TO), vs vehicle): lower
retina-choroid inflammation score ([3]; topical (TO), vs vehicle): lower
Body weights ([1]; vs PO vehicle): did not differ significantly
proximal colon edema, reduction [1, 6]: 63%
proximal colon erosion, reduction [1, 6]: 73%
